Test system: PBMCs of ten HLA-A2+ healthy subjects
Assay: In vitro stimulation of peptide-specific T cells in PBMCs of healthy subjects, IFN-γ release by ELISA
Format: cell-based, human
Conditions: PBMCs stimulated 14 days with peptide 20 μg/mL, response to T2 cells pre-loaded with peptide 5 μg/mL
Protocol: Ten HLA-A2+ prostate cancer patients and ten HLA-A2+ healthy subjects were enrolled in this study after written informed consent was obtained. All protocols were approved by the Institutional Review Board (IRB) of Baylor College of Medicine before commencing studies. 20 mL of peripheral blood was obtained from each person, and peripheral blood mononuclear cells (PBMCs) were isolated by density gradient centrifugation using Lymphoprep (Nycomed Pharma AS; Oslo, Norway). The freshly isolated PBMCs were cryopreserved for later use in 1 mL freezing medium containing 90% FCS and 10% dimethyl sulfoxide (DMSO) at −140° C. The expression of HLA-A2 molecules on PBMCs obtained from cancer patients and healthy subjects was verified by flow cytometry with FITC-labeled HLA-A2 mAb BB7.2 (BD Pharmingen, San Diego, Calif., USA).
PBMCs (1×10^5 cells/well) from either healthy subjects or prostate cancer patients were incubated with standard peptide concentrations of 20 μg/mL per peptide in 96-well U-bottom microplates (BD, Franklin Lakes, N.J., USA) in 200 μL of T-cell medium (TCM), consisting of RPMI 1640 (Mediatech, Manassas, Va., USA), 10% human AB serum (Valley Biomedical, Winchester, USA), 50 μM of 2-mercaptoethanol, 100 U/mL of interleukin-2 (IL-2), and 0.1 mM MEM nonessential amino acid solution (Invitrogen, Grand Island, N.Y., USA). Half of the TCM was removed and replaced with fresh TCM containing peptides (20 μg/mL) every 5 days. After 14 days of culture, the cells were harvested and tested for their ability to produce IFN-γ in response to T2 cells (1×10^4 cells/well), which were pre-loaded with either PSGR peptide (5 μg/mL) or a control peptide (an irrelevant HL-A2 binding peptide: NLLTHVESL) as a negative control. After 18 hours of incubation, supernatants were collected, and IFN-γ release was determined by ELISA assay.
Cytokine release was measured by coating 96-well ELISA plates (Thermo Fisher Scientific; Rochester, N.Y., USA) with 1 μg/mL anti-human IFN-γ (Pierce Biotechnology; Rockford, Ill., USA) overnight at 4° C. The plate was washed six times with PBS containing 0.05% Tween-20 (wash solution) to remove unbound coating antibody, and blocked with 1% BSA/PBS at room temperature for 2 hrs. Afterwards, 50 μL supernatant was added to each well and incubated at room temperature for 1 hr, then 50 μL of 0.5 μg/mL biotinylated anti-human IFN-γ (Pierce Biotechnology; Rockford, Ill., USA) was added and plates were incubated for an additional 1 hr at room temperature. After incubation, plates were washed and incubated for 30 min with Poly-HRP-Streptavidin (Thermo Fisher Scientific; Rochester, N.Y., USA) diluted 1:5000 in PBS/1% BSA. Plates were washed and 100 μL of TMB substrate solution (Sigma-Aldrich Co.; St. Louis, Mo., USA) was added per well. The colorimetric reaction was stopped using 2N H2SO4 and plates were read at 450 nm using an ELISA plate reader.
To determine whether PSGR-reactive T cell precursors are present in healthy subjects, we obtained PBMCs from 10 HLA-A2+ healthy donors and stimulated them in vitro with each of the 21 PSGR-derived peptides containing HLA-A2-binding motif (Table 1). After 2 weeks of peptide stimulation, supernatants from peptide-stimulated T cells were analyzed by ELISA assay to detect IFN-γ release in response to T2 cells pulsed with or without corresponding peptides.

Row | Sequence | concentrations of IFN-γ in the supernatants (healthy subject #1) [pg/mL] | concentrations of IFN-γ in the supernatants (healthy subject #2) [pg/mL] | concentrations of IFN-γ in the supernatants (healthy subject #3) [pg/mL] | concentrations of IFN-γ in the supernatants (healthy subject #4) [pg/mL] | concentrations of IFN-γ in the supernatants (healthy subject #5) [pg/mL] | concentrations of IFN-γ in the supernatants (healthy subject #6) [pg/mL]
1 | ALMAPLPVFI (PSGR13) | 0 | 0 | 0 | 0 | 0 | 0
2 | CLHQDVMKL [PSGR7] | 0 | 0 | 0 | 0 | 168 | 0
3 | CMLSGIDILI (PSGR17) | 0 | 0 | 0 | 0 | 0 | 0
4 | FIFYVPFIGL (PSGR22) | 289 | 0 | 0 | 0 | 0 | 0
5 | GLEEAQFWLA (PSGR12) | 0 | 139 | 0 | 246 | 0 | 432
6 | HVCAVFIFYV (PSGR11) | 0 | 0 | 0 | 0 | 0 | 0
7 | KLACDDIRV (PSGR2) | 0 | 0 | 455 | 0 | 0 | 0
8 | LLAMAFDRYV (PSGR20) | 0 | 0 | 0 | 0 | 0 | 0
9 | LLILKTVLGL (PSGR15) | 0 | 0 | 456 | 0 | 0 | 0
10 | LLQMFAIHSL (PSGR18) | 176 | 0 | 0 | 0 | 0 | 0
11 | SLHEPMYIFL (PSGR19) | 0 | 0 | 0 | 0 | 195 | 0
12 | SLLISFSYLL (PSGR10) | 917 | 0 | 0 | 0 | 0 | 0
13 | TLPRVTKIGV (PSGR23) | 0 | 0 | 0 | 0 | 0 | 0
14 | VLGNLTIIYI (PSGR21) | 0 | 291 | 0 | 0 | 300 | 377
15 | VLNPIVYGV (PSGR1) | 195 | 0 | 0 | 0 | 0 | 281
16 | YLIAVLGNLT (PSGR16) | 602 | 0 | 0 | 0 | 163 | 0
17 | YLLILKTVL (PSGR5) | 0 | 0 | 0 | 0 | 0 | 0
18 | YVPFIGLSMV (PSGR24) | 0 | 0 | 0 | 0 | 0 | 0
